In experiment [1] the test system is F21T (DNA, G4) GGGTTAGGGTTAGGGTTAGGG
Kind of experiment: FRET melting. As to conditions: 10 mM Li cacodylate, 1 μM ligand, 200 nM DNA.

Experiment [2] relates to F10T (DNA, hairpin, hexaethylene glycol (HEG) linker between nucleotides 10 and 11) TATAGCTATATATAGCTATA
Kind of experiment: FRET melting. As to conditions: 10 mM KCl, 90 mM LiCl, 10 mM Li cacodylate, 200 nM DNA.

The test system of experiment [3] is FMycT (F-Myc-T) (DNA, G4) TTGAGGGTGGGTAGGGTGGGTAA
Nature of the experiment: FRET melting. The conditions noted are these: 1 mM KCl, 99 mM LiCl, 10 mM Li cacodylate, 200 nM DNA.

Experiment [4] shares this test system. Nature of the experiment: FRET melting. The conditions noted are these: 1 mM KCl, 99 mM LiCl; 10 mM Li cacodylate; 1 μM ligand, 200 nM DNA.
Experiment [5] deals with telo23 (DNA, G4) TAGGGTTAGGGTTAGGGTTAGGG
Nature of the experiment: CD titration. The conditions noted are these: Na+ (100 mM sodium phosphate); pH 7.4 (main text 7.2); 4.22 µM DNA; antiparallel shifts towards hybrid.

For experiment [6], the system named is F21T (DNA, G4) GGGTTAGGGTTAGGGTTAGGG
Nature of the experiment: FRET melting. The conditions noted are these: 10 mM Li cacodylate, 200 nM DNA.

The subject of experiment [7] is F10T (DNA, hairpin, hexaethylene glycol (HEG, (-CH2CH2O-)6) linker between nucleotides 10 and 11) TATAGCTATATATAGCTATA
Nature of the experiment: FRET melting. As to conditions: 10 mM KCl, 90 mM LiCl; 10 mM Li cacodylate; 1 μM ligand, 200 nM DNA.

Experiment [8] has as its system telo23 (DNA, G4) TAGGGTTAGGGTTAGGGTTAGGG
Kind of experiment: ITC. The conditions noted are these: K+ (100 mM potassium phosphate); pH 7.4, 25 °C (298 K); 15 µM DNA; bracket = 68.3 % confidence interval.

[9] abbreviates: 10 mM KCl, 90 mM LiCl, 1 μM ligand.
[10] abbreviates: 100 mM NaCl, 1 μM ligand, no stabilization up to 10 μM.
Setting [11] is: 100 mM NaCl, no stabilization up to 10 μM.
Setting [12] is: 1 µM ligand, no stabilization up to 10 µM.

The source of these data is PMC5485019 (2017).

Turning to `CN(C)CCCN1C(=O)c2ccc3c4c(ccc(c24)C1=O)C(=O)N(CCCN(C)C)C3=O`, the ΔT max is 2.3±0.5 °C in experiment [1] (10 mM KCl, 90 mM LiCl); −1.5±0.2 °C in experiment [1] (100 mM NaCl); 1.1±0.1 °C in experiment [2] (1 μM ligand); 3.9±0.2 °C in experiment [3] (1 μM ligand).
As to `CN1CCN(CCCN2C(=O)c3ccc4c5c(ccc(c35)C2=O)C(=O)N(CCCN2CCN(C)CC2)C4=O)CC1`, the ΔT max was 0.5±0.3 °C in experiment [4], 9.8±0.6 °C in experiment [6] (setting [9]), −2.3±0.3 °C in experiment [6] (setting [10]) and 0.3±0.2 °C in experiment [7]. Also, in experiment [5], the binding entry is “yes”. Moreover, the K a in experiment [8] is recorded as 1.03 (0.865,1.23) × 10^6 M^-1.
For the compound `C[n+]1ccc(-c2c3nc(c(-c4cc[n+](C)cc4)c4ccc([nH]4)c(-c4cc[n+](C)cc4)c4nc(c(-c5cc[n+](C)cc5)c5ccc2[nH]5)C=C4)C=C3)cc1`, in experiment [6] (setting [9]), the “∆Tmax” value was 27.4 ± 0.4 °C.
For the compound `Cn1cc[n+](CCCN2C(=O)c3ccc4c5c(ccc(c35)C2=O)C(=O)N(CCC[n+]2ccn(C)c2)C4=O)c1`, the ΔT max is 3.7±0.3 °C in experiment [1] (10 mM KCl, 90 mM LiCl); −0.5±0.4 °C in experiment [1] (100 mM NaCl); 1.8±0.8 °C in experiment [4]; 0.1±0.1 °C in experiment [7]. In addition, the K a in experiment [8] is 2.16 (1.85,2.52) × 10^6 M^-1.
As to `Cn1cc[n+](CCN2C(=O)c3ccc4c5c(ccc(c35)C2=O)C(=O)N(CC[n+]2ccn(C)c2)C4=O)c1`, the ΔT max is 1.3±0.4 °C in experiment [1] (10 mM KCl, 90 mM LiCl); −0.6±0.5 °C in experiment [1] (setting [11]); 1±0.4 °C in experiment [4]; 0.4±0.2 °C in experiment [7].
In the case of `Cn1cc[n+](C[C@H]2O[C@@H](OCCN3C(=O)c4ccc5c6c(ccc(c46)C3=O)C(=O)N(CCO[C@@H]3O[C@H](C[n+]4ccn(C)c4)[C@@H](O)[C@H](O)[C@H]3O)C5=O)[C@H](O)[C@@H](O)[C@@H]2O)c1`, the ΔT max in experiment [1] (10 mM KCl, 90 mM LiCl) is 2.9±0.3 °C; in experiment [1] (setting [11]) it was −1.5±0.4 °C; in experiment [4], 0.9±0.7 °C; in experiment [7], 0.1±0.2 °C.
On to `Cn1cc[n+](C[C@H]2O[C@H](OCCN3C(=O)c4ccc5c6c(ccc(c46)C3=O)C(=O)N(CCO[C@H]3O[C@H](C[n+]4ccn(C)c4)[C@@H](O)[C@H](O)[C@@H]3O)C5=O)[C@@H](O)[C@@H](O)[C@@H]2O)c1`, for which the ΔT max is −0.1±0.1 °C in experiment [2] (1 µM ligand, 3.2 °C at 10 µM); 10.1±0.3 °C in experiment [6] (setting [9]); −1.4±0.3 °C in experiment [6] (setting [10]); −0.3±0.7 °C in experiment [3] (1 µM ligand, 10.5 °C at 10 µM). In addition, the binding entry in experiment [5] is listed as “yes”. The K a in experiment [8] was 1.30 (1.02,1.64) × 10^6 M^-1.
For the compound `O=C1c2ccc3c4c(ccc(c24)C(=O)N1CCO[C@@H]1O[C@H](CO)[C@@H](O)[C@H](O)[C@H]1O)C(=O)N(CCO[C@@H]1O[C@H](CO)[C@@H](O)[C@H](O)[C@H]1O)C3=O`, the ΔT max is −0.1±0.5 °C in experiment [1] (setting [11]); 0.5±0.2 °C in experiment [2] (setting [12]); 0.4±0.1 °C in experiment [6] (10 mM KCl, 90 mM LiCl, 1 µM ligand, no stabilization up to 10 µM); −0.3±0.4 °C in experiment [3] (setting [12]).
